# Columns and labels:
# Experiment in all cases: relative viability (nuclei count vs DMSO), 5 days (fraction); higher = more cells survive
# Omipalisib = compound: COc1ncc(-c2ccc3nccc(-c4ccnnc4)c3c2)cc1NS(=O)(=O)c1ccc(F)cc1F [Omipalisib]
# Method in brief: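 Vehicle-anchored 1536-well plates of lung cancer cell lines, held overnight at 37 °C, were pinned with five library-drug doses (not always all listed) spaced by √10. No medium change followed over the next 5 days, after which the cells were fixed, permeabilised and Hoechst-stained together and imaged at 4×. Nuclei were counted with MetaXpress, and viability is treated-well nuclei over vehicle-well nuclei, taken as a median across plates. Plates passed with control CV below 25% and at least one doubling.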
# Omipalisib + Trametinib = compound: COc1ncc(-c2ccc3nccc(-c4ccnnc4)c3c2)cc1NS(=O)(=O)c1ccc(F)cc1F [Omipalisib] + CC(=O)Nc1cccc(-n2c(=O)n(C3CC3)c(=O)c3c(Nc4ccc(I)cc4F)n(C)c(=O)c(C)c32)c1 [Trametinib] (partner 0.02 µM)
# Method in brief: (§1)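 Each reported value is a median over duplicate plates. It expresses relative viability: treated-well nuclei count divided by vehicle-well nuclei count. Lung cancer cell lines in 1536-well plates were dosed by pin tool a day after seeding, alone with one drug or with a fixed anchor-drug dose plus five library-drug doses (not always all listed) in √10 steps, and nuclei were counted after 5 days.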
# Omipalisib + Palbociclib = compound: COc1ncc(-c2ccc3nccc(-c4ccnnc4)c3c2)cc1NS(=O)(=O)c1ccc(F)cc1F [Omipalisib] + CC(=O)c1c(C)c2cnc(Nc3ccc(N4CCNCC4)cn3)nc2n(C2CCCC2)c1=O [Palbociclib] (partner 0.5 µM)
# Method in brief: as §1
# Omipalisib + OSI-027 = compound: COc1ncc(-c2ccc3nccc(-c4ccnnc4)c3c2)cc1NS(=O)(=O)c1ccc(F)cc1F [Omipalisib] + COc1cccc2cc(-c3nc([C@H]4CC[C@H](C(=O)O)CC4)n4ncnc(N)c34)[nH]c12 [OSI-027] (partner 0.5 µM)
# Method in brief: as §1
# Omipalisib + Tozasertib = compound: COc1ncc(-c2ccc3nccc(-c4ccnnc4)c3c2)cc1NS(=O)(=O)c1ccc(F)cc1F [Omipalisib] + Cc1cc(Nc2cc(N3CCN(C)CC3)nc(Sc3ccc(NC(=O)C4CC4)cc3)n2)n[nH]1 [Tozasertib] (partner 0.1 µM)
# Method in brief: as §1
# Omipalisib + AZD7762 = compound: COc1ncc(-c2ccc3nccc(-c4ccnnc4)c3c2)cc1NS(=O)(=O)c1ccc(F)cc1F [Omipalisib] + NC(=O)Nc1cc(-c2cccc(F)c2)sc1C(=O)N[C@H]1CCCNC1 [AZD7762] (partner 0.2 µM)
# Method in brief: as §1
# Omipalisib + Pemetrexed = compound: COc1ncc(-c2ccc3nccc(-c4ccnnc4)c3c2)cc1NS(=O)(=O)c1ccc(F)cc1F [Omipalisib] + Nc1nc2[nH]cc(CCc3ccc(C(=O)N[C@@H](CCC(=O)O)C(=O)O)cc3)c2c(=O)[nH]1 [Pemetrexed] (partner 0.2 µM)
# Method in brief: as §1
# Omipalisib + Decitabine = compound: COc1ncc(-c2ccc3nccc(-c4ccnnc4)c3c2)cc1NS(=O)(=O)c1ccc(F)cc1F [Omipalisib] + Nc1ncn([C@H]2C[C@H](O)[C@@H](CO)O2)c(=O)n1 [Decitabine] (partner 2 µM)
# Method in brief: as §1
# Omipalisib + Vorinostat = compound: COc1ncc(-c2ccc3nccc(-c4ccnnc4)c3c2)cc1NS(=O)(=O)c1ccc(F)cc1F [Omipalisib] + O=C(CCCCCCC(=O)Nc1ccccc1)NO [Vorinostat] (partner 1 µM)
# Method in brief: as §1
# Omipalisib + Olaparib = compound: COc1ncc(-c2ccc3nccc(-c4ccnnc4)c3c2)cc1NS(=O)(=O)c1ccc(F)cc1F [Omipalisib] + O=C(c1cc(Cc2n[nH]c(=O)c3ccccc23)ccc1F)N1CCN(C(=O)C2CC2)CC1 [Olaparib] (partner 8 µM)
# Method in brief: as §1
# Omipalisib + Bortezomib = compound: COc1ncc(-c2ccc3nccc(-c4ccnnc4)c3c2)cc1NS(=O)(=O)c1ccc(F)cc1F [Omipalisib] + CC(C)C[C@H](NC(=O)[C@H](Cc1ccccc1)NC(=O)c1cnccn1)B(O)O [Bortezomib] (partner 0.002 µM)
# Method in brief: as §1
# Omipalisib + Navitoclax = compound: COc1ncc(-c2ccc3nccc(-c4ccnnc4)c3c2)cc1NS(=O)(=O)c1ccc(F)cc1F [Omipalisib] + CC1(C)CCC(c2ccc(Cl)cc2)=C(CN2CCN(c3ccc(C(=O)NS(=O)(=O)c4ccc(N[C@H](CCN5CCOCC5)CSc5ccccc5)c(S(=O)(=O)C(F)(F)F)c4)cc3)CC2)C1 [Navitoclax] (partner 0.5 µM)
# Method in brief: as §1
# Omipalisib + Foretinib = compound: COc1ncc(-c2ccc3nccc(-c4ccnnc4)c3c2)cc1NS(=O)(=O)c1ccc(F)cc1F [Omipalisib] + COc1cc2c(Oc3ccc(NC(=O)C4(C(=O)Nc5ccc(F)cc5)CC4)cc3F)ccnc2cc1OCCCN1CCOCC1 [Foretinib] (partner 0.25 µM)
# Method in brief: as §1
# Omipalisib + Lapatinib = compound: COc1ncc(-c2ccc3nccc(-c4ccnnc4)c3c2)cc1NS(=O)(=O)c1ccc(F)cc1F [Omipalisib] + CS(=O)(=O)CCNCc1ccc(-c2ccc3ncnc(Nc4ccc(OCc5cccc(F)c5)c(Cl)c4)c3c2)o1 [Lapatinib] (partner 2 µM)
# Method in brief: as §1
# Omipalisib + Pictilisib = compound: COc1ncc(-c2ccc3nccc(-c4ccnnc4)c3c2)cc1NS(=O)(=O)c1ccc(F)cc1F [Omipalisib] + CS(=O)(=O)N1CCN(Cc2cc3nc(-c4cccc5[nH]ncc45)nc(N4CCOCC4)c3s2)CC1 [Pictilisib] (partner 1 µM)
# Method in brief: as §1
# Omipalisib + Crizotinib = compound: COc1ncc(-c2ccc3nccc(-c4ccnnc4)c3c2)cc1NS(=O)(=O)c1ccc(F)cc1F [Omipalisib] + C[C@@H](Oc1cc(-c2cnn(C3CCNCC3)c2)cnc1N)c1c(Cl)ccc(F)c1Cl [Crizotinib] (partner 1 µM)
# Method in brief: as §1
# Omipalisib + Linsitinib = compound: COc1ncc(-c2ccc3nccc(-c4ccnnc4)c3c2)cc1NS(=O)(=O)c1ccc(F)cc1F [Omipalisib] + C[C@]1(O)C[C@@H](c2nc(-c3ccc4ccc(-c5ccccc5)nc4c3)c3c(N)nccn32)C1 [Linsitinib] (partner 1 µM)
# Method in brief: as §1
# Omipalisib + Alpelisib = compound: COc1ncc(-c2ccc3nccc(-c4ccnnc4)c3c2)cc1NS(=O)(=O)c1ccc(F)cc1F [Omipalisib] + Cc1nc(NC(=O)N2CCC[C@H]2C(N)=O)sc1-c1ccnc(C(C)(C)C(F)(F)F)c1 [Alpelisib] (partner 2 µM)
# Method in brief: as §1
cell line,measurement,setting,value
NCI-H1648,relative viability,Omipalisib; 0.0003 µM,0.913
same,relative viability,Omipalisib; 0.003 µM,0.504
same,relative viability,Omipalisib; 0.03 µM,0.278
same,relative viability,Omipalisib + Trametinib; first compound 0.0003 µM,0.362
same,relative viability,Omipalisib + Trametinib; first compound 0.003 µM,0.407
same,relative viability,Omipalisib + Trametinib; first compound 0.03 µM,0.249
same,relative viability,Omipalisib + Palbociclib; first compound 0.0003 µM,0.277
same,relative viability,Omipalisib + Palbociclib; first compound 0.003 µM,0.23
same,relative viability,Omipalisib + Palbociclib; first compound 0.03 µM,0.29
same,relative viability,Omipalisib + OSI-027; first compound 0.0003 µM,0.253
same,relative viability,Omipalisib + OSI-027; first compound 0.003 µM,0.291
same,relative viability,Omipalisib + OSI-027; first compound 0.03 µM,0.26
same,relative viability,Omipalisib + Tozasertib; first compound 0.0003 µM,0.322
same,relative viability,Omipalisib + Tozasertib; first compound 0.003 µM,0.408
same,relative viability,Omipalisib + Tozasertib; first compound 0.03 µM,0.184
same,relative viability,Omipalisib + AZD7762; first compound 0.0003 µM,0.644
same,relative viability,Omipalisib + AZD7762; first compound 0.003 µM,0.843
same,relative viability,Omipalisib + AZD7762; first compound 0.03 µM,0.386
same,relative viability,Omipalisib + Pemetrexed; first compound 0.0003 µM,0.754
same,relative viability,Omipalisib + Pemetrexed; first compound 0.003 µM,0.619
same,relative viability,Omipalisib + Pemetrexed; first compound 0.03 µM,0.413
same,relative viability,Omipalisib + Decitabine; first compound 0.0003 µM,0.445
same,relative viability,Omipalisib + Decitabine; first compound 0.003 µM,0.363
same,relative viability,Omipalisib + Decitabine; first compound 0.03 µM,0.356
same,relative viability,Omipalisib + Vorinostat; first compound 0.0003 µM,0.548
same,relative viability,Omipalisib + Vorinostat; first compound 0.003 µM,0.396
same,relative viability,Omipalisib + Vorinostat; first compound 0.03 µM,0.228
same,relative viability,Omipalisib + Olaparib; first compound 0.0003 µM,0.384
same,relative viability,Omipalisib + Olaparib; first compound 0.003 µM,0.392
same,relative viability,Omipalisib + Olaparib; first compound 0.03 µM,0.202
NCI-H1299,relative viability,Omipalisib; 0.0003 µM,1.06
same,relative viability,Omipalisib; 0.003 µM,1.1
same,relative viability,Omipalisib; 0.03 µM,1.02
same,relative viability,Omipalisib + Bortezomib; first compound 0.0003 µM,1.03
same,relative viability,Omipalisib + Bortezomib; first compound 0.003 µM,1.08
same,relative viability,Omipalisib + Bortezomib; first compound 0.03 µM,1.12
same,relative viability,Omipalisib + Navitoclax; first compound 0.0003 µM,1.09
same,relative viability,Omipalisib + Navitoclax; first compound 0.003 µM,1.05
same,relative viability,Omipalisib + Navitoclax; first compound 0.03 µM,1.05
same,relative viability,Omipalisib + Foretinib; first compound 0.0003 µM,1.13
same,relative viability,Omipalisib + Foretinib; first compound 0.003 µM,1.17
same,relative viability,Omipalisib + Foretinib; first compound 0.03 µM,1.12
same,relative viability,Omipalisib + Lapatinib; first compound 0.0003 µM,1.01
same,relative viability,Omipalisib + Lapatinib; first compound 0.003 µM,0.994
same,relative viability,Omipalisib + Lapatinib; first compound 0.03 µM,1.02
same,relative viability,Omipalisib + Pictilisib; first compound 0.0003 µM,0.778
same,relative viability,Omipalisib + Pictilisib; first compound 0.003 µM,0.612
same,relative viability,Omipalisib + Pictilisib; first compound 0.03 µM,0.624
same,relative viability,Omipalisib + Crizotinib; first compound 0.0003 µM,0.986
same,relative viability,Omipalisib + Crizotinib; first compound 0.003 µM,1.03
same,relative viability,Omipalisib + Crizotinib; first compound 0.03 µM,0.967
same,relative viability,Omipalisib + Linsitinib; first compound 0.0003 µM,0.95
same,relative viability,Omipalisib + Linsitinib; first compound 0.003 µM,1.01
same,relative viability,Omipalisib + Linsitinib; first compound 0.03 µM,0.909
same,relative viability,Omipalisib + Alpelisib; first compound 0.0003 µM,1.12
same,relative viability,Omipalisib + Alpelisib; first compound 0.003 µM,1.13
same,relative viability,Omipalisib + Alpelisib; first compound 0.03 µM,1.06
same,relative viability,Omipalisib + Olaparib; first compound 0.0003 µM,1.05
same,relative viability,Omipalisib + Olaparib; first compound 0.003 µM,1.01
same,relative viability,Omipalisib + Olaparib; first compound 0.03 µM,0.902
